pEC50: −log10 of the molar value. The source made the active and inactive calls. No cut-off for these calls is given here.
What was measured:
[1] = test system: A2780; assay: Induction of apoptosis in human A2780 cells assessed as increase in caspase-3 activity at 5 uM after 24 hrs by flow cytometry; format: functional, cell-based
[2] = test system: A2780; assay: Induction of apoptosis in human A2780 cells assessed as early apoptotic cells at 5 uM after 24 hrs by Annexin V-FITC/propidium iodide staining based flow cytometry (reference value: 3.5%); format: functional
[3] = test system: NIH3T3; assay: Cytotoxicity against mouse NIH/3T3 cells after 96 hrs by SRB assay; format: cell-based; details: NIH3T3, 96 h
[4] = test system: HT-29; assay: cells; details: Homo sapiens, HT-29, 96 h
Description: Cytotoxicity against human HT-29 cells after 96 hrs by SRB assay

[5] = test system: A2780; assay: Induction of apoptosis in human A2780 cells assessed as late apoptotic cells at 5 uM after 24 hrs by Annexin V-FITC/propidium iodide staining based flow cytometry (reference value: 6.6%); format: functional
[6] = test system: MCF7; assay: Cytotoxicity against human MCF7 cells after 96 hrs by SRB assay; format: functional, cell-based; details: MCF7, 96 h
[7] = test system: A549; assay: Cytotoxicity against human A549 cells after 96 hrs by SRB assay; format: functional, cell-based; details: A549, 96 h
[8] = test system: 518A2; assay: Cytotoxicity against human 518A2 cells after 96 hrs by SRB assay; format: functional, cell-based; details: 518A2, 96 h
[9] = test system: A2780; assay: Induction of apoptosis in human A2780 cells assessed as live cells at 5 uM after 24 hrs by Annexin V-FITC/propidium iodide staining based flow cytometry (reference value: 88.7%); format: functional
[10] = test system: A2780; assay: Cell cycle arrest in human A2780 cells at 5 uM after 24 hrs by propidium iodide staining based flow cytometry; format: functional
[11] = test system: A2780; assay: Cytotoxicity against human A2780 cells after 96 hrs by SRB assay; format: functional, cell-based; details: A2780, 96 h
[12] = test system: A2780; assay: Induction of apoptosis in human A2780 cells assessed as necrotic cells at 5 uM after 24 hrs by Annexin V-FITC/propidium iodide staining based flow cytometry (reference value: 1.1%); format: functional
[13] = test system: A2780; assay: Cytotoxicity against human A2780 cells assessed as morphological changes at 5 uM after 24 hrs by acridine orange/propidium iodide staining based fluorescence microscopic method; format: functional, cell-based
[14] = test system: A2780; assay: Induction of apoptosis in human A2780 cells assessed as live cells at 8 uM after 24 hrs by Annexin V-FITC/propidium iodide staining based flow cytometry (reference value: 88.7%); format: functional
[15] = test system: A2780; assay: Induction of apoptosis in human A2780 cells assessed as necrotic cells at 8 uM after 24 hrs by Annexin V-FITC/propidium iodide staining based flow cytometry (reference value: 1.1%); format: functional
[16] = test system: A2780; assay: Induction of apoptosis in human A2780 cells assessed as increase in caspase-3 activity at 8 uM after 24 hrs by flow cytometry; format: functional, cell-based
[17] = test system: A2780; assay: Induction of apoptosis in human A2780 cells assessed as early apoptotic cells at 8 uM after 24 hrs by Annexin V-FITC/propidium iodide staining based flow cytometry (reference value: 3.5%); format: functional
[18] = test system: A2780; assay: Cytotoxicity against human A2780 cells assessed as morphological changes at 8 uM after 24 hrs by acridine orange/propidium iodide staining based fluorescence microscopic method; format: functional, cell-based
[19] = test system: A2780; assay: Induction of apoptosis in human A2780 cells assessed as late apoptotic cells at 8 uM after 24 hrs by Annexin V-FITC/propidium iodide staining based flow cytometry (reference value: 6.6%); format: functional
[20] = test system: A2780; assay: Cell cycle arrest in human A2780 cells at 8 uM after 24 hrs by propidium iodide staining based flow cytometry; format: functional

## CC(=O)[C@@H]1CC[C@]2(C(=O)NCCN3CCCC3)CC[C@]3(C)[C@H](CC[C@@H]4[C@@]5(C)CC[C@H](O)C(C)(C)[C@@H]5CC[C@]43C)[C@@H]12
[1]
  Activity: Active
[2]
  Activity: 7.1%
[3]
  pEC50: 5.55
[4]
  pEC50: 5.55
[5]
  Activity: 47.4%
[6]
  pEC50: 5.68
[7]
  pEC50: 5.64
[8]
  pEC50: 5.60
[9]
  Activity: 41.3%
[10]
  Activity: inactive
[11]
  pEC50: 5.66
[12]
  Activity: 4.2%
[13]
  Activity: Active

## COC(=O)[C@]12CC[C@@H]([C@@H](C)NC(C)=O)[C@@H]1[C@H]1CC[C@@H]3[C@@]4(C)CC[C@H](OC(C)=O)C(C)(C)[C@@H]4CC[C@@]3(C)[C@]1(C)CC2
[3]
  pEC50: 4.80
[4]
  pEC50: 4.56
[6]
  pEC50: 4.67
[7]
  pEC50: 4.64
[8]
  pEC50: 4.57
[11]
  pEC50: 4.56

## CC(=O)[C@@H]1CC[C@]2(C(=O)OCc3ccccc3)CC[C@]3(C)[C@H](CC[C@@H]4[C@@]5(C)CCC(=O)C(C)(C)[C@@H]5CC[C@]43C)[C@@H]12
[3]
  pEC50: < 4.52
[4]
  pEC50: < 4.52
[6]
  pEC50: < 4.52
[7]
  pEC50: < 4.52
[8]
  pEC50: < 4.52
[11]
  pEC50: < 4.52

## COC(=O)[C@]12CC[C@@H]([C@@H](C)N)[C@@H]1[C@H]1CC[C@@H]3[C@@]4(C)CC[C@H](OC(C)=O)C(C)(C)[C@@H]4CC[C@@]3(C)[C@]1(C)CC2
[14]
  Activity: 58.1%
[15]
  Activity: 1.4%
[16]
  Activity: Active
[17]
  Activity: 23.7%
[3]
  pEC50: 5.25
[4]
  pEC50: 5.20
[18]
  Activity: Active
[19]
  Activity: 16.6%
[20]
  Activity: inactive
[6]
  pEC50: 5.29
[7]
  pEC50: 5.28
[8]
  pEC50: 5.39
[11]
  pEC50: 5.33

## CC(=O)O[C@H]1CC[C@]2(C)[C@H]3CC[C@@H]4[C@H]5[C@H](C(C)=O)CC[C@]5(C(=O)NCCN)CC[C@@]4(C)[C@]3(C)CC[C@H]2C1(C)C
[3]
  pEC50: 5.68
[4]
  pEC50: 5.48
[6]
  pEC50: 5.51
[7]
  pEC50: 5.49
[8]
  pEC50: 5.49
[11]
  pEC50: 5.49

## CC(=O)O[C@H]1CC[C@]2(C)[C@H]3CC[C@@H]4[C@H]5[C@H]([C@H](C)N)CC[C@]5(C(=O)OCc5ccccc5)CC[C@@]4(C)[C@]3(C)CC[C@H]2C1(C)C
[3]
  pEC50: 5.70
[4]
  pEC50: 5.89
[6]
  pEC50: 5.89
[7]
  pEC50: 5.48
[8]
  pEC50: 5.60
[11]
  pEC50: 5.64

## CC(=O)O[C@H]1CC[C@]2(C)[C@H]3CC[C@@H]4[C@H]5[C@H](C(C)=O)CC[C@]5(C(=O)NCCN(C)C)CC[C@@]4(C)[C@]3(C)CC[C@H]2C1(C)C
[3]
  pEC50: 5.85
[4]
  pEC50: 5.35
[6]
  pEC50: 5.60
[7]
  pEC50: 5.54
[8]
  pEC50: 5.43
[11]
  pEC50: 5.42

## COC(=O)[C@]12CC[C@@H]([C@H](C)NC(C)=O)[C@@H]1[C@H]1CC[C@@H]3[C@@]4(C)CC[C@H](OC(C)=O)C(C)(C)[C@@H]4CC[C@@]3(C)[C@]1(C)CC2
[3]
  pEC50: 4.71
[4]
  pEC50: 4.61
[6]
  pEC50: 4.75
[7]
  pEC50: 4.59
[8]
  pEC50: 4.52
[11]
  pEC50: 4.60
